{"source": "paper PMC11926880", "about": "“Procognitive Potential of Neuroprotective Triazine 5-HT6 Receptor Antagonists Tested on Chronic Activity In Vivo in Rats: Computer-Aided Insight into the Role of Chalcogen-Differences on the Pharmacological Profile” (ACS Chemical Neuroscience, 2025)", "key": {"[1]": {"system": "SH-SY5Y cells", "experiment": "MTS assay 72 h, neurotoxic effect", "format": "cell-based, human", "conditions": "10 and 50 μM", "description": "SHSY5Y cells were grown in DMEM supplemented by 10% FBS, L-glutamine (2 mM), and penicillin (100u/mL)/streptomycin (100 μg/mL). The cell line was tested for mycoplasma using DAPI staining and the LookOut Mycoplasma PCR Detection Kit (MP0035, Merck). The cell line was authenticated after thawing by a morphology check, cell proliferation rate evaluation, and species verification by PCR. Bacteria contamination was excluded. […] Subsequently, cells were subjected to a CellTiter 96 AQueous One Solution Cell Proliferation Assay (Promega), according to the manufacturer’s protocol. The absorbance at 490 nm was evaluated to estimate the cell number."}, "[2]": {"system": "HT-22 cell line", "experiment": "protection against Aβ1–42, ROS (CellROX)", "format": "cell-based, mouse", "conditions": "10 μM pretreatment 1 h, Aβ1–42 35 μM 16 h", "experimental": "Cells were cultured in Dulbecco’s modified Eagle’s Medium-high glucose (DMEM, GlutaMAX ThermoFisher) supplemented with 10% inactivated fetal bovine serum heat (Thermo Fisher), 100 IU/mL penicillin (Merck), and 100 μg/mL streptomycin (Merck). Cells were cultured in flasks (area 175 cm^2, Nunc) and incubated at 37 °C, 5% CO2. To measure the neuroprotective effect against Aβ1–42, cells were placed in a 96-well culture plate (5 × 10^3 cells per well, Falcon).\nStock solutions were prepared at a concentration of 10 mM for the tested compounds. A minimum of 1 mg of each tested compound was weighed and dissolved in an appropriate volume of dimethyl sulfoxide (DMSO). Serial dilutions were prepared in DMSO, and then, the diluted compounds were transferred to phosphate-buffered saline (PBS), mixed, and put into a medium with adherent cells. Before the assays, eventual precipitation or opalescence was checked.\nAβ1–42 (Merck) was initially dissolved in 1,1,1,3,3,3- hexafluor-2-propanol (Merck). […] After this time, the Aβ1–42 solution was evaporated by using nitrogen gas. Next, DMSO was added to obtain a 2 mM stock solution of β-amyloid. […]\nAfter the end of incubation with the tested compounds, the supernatant was removed, and cells were incubated with CellROX (5 μM) in DMEM FluoroBrite (ThermoFisher) for 1 h at 37 °C. The results are expressed as a percentage of control (Aβ1–42)."}, "[3]": {"molecular_target": "5-HT1AR", "conditions": "read-out: radioligand binding assay Ki; cloned receptors; cited from earlier work"}}}
{"smiles": "CN1CCN(c2nc(N)nc(C(C)(C)Sc3ccc4ccccc4c3)n2)CC1", "note": "[WA-22, 4-(4-methylpiperazin-1-yl)-6-(2-(naphthalen-2-ylthio)propan-2-yl)-1,3,5-triazin-2-amine]", "values": [{"measurement": "neurotoxic effect (MTS)", "setting": "[1]", "value": "no significant differences"}, {"measurement": "decrease of ROS induced by Aβ", "setting": "[2]", "value": "only PPK-32 displayed the ability to decrease ROS"}, {"measurement": "Ki", "setting": "[3]", "value": 2290, "unit": "nM"}]}
